Measurements: patent US9474775B2, “Compound, extract isolated from antrodia camphorate, and method using the same” (priority 2013, dated 2016)
In brackets after ≈: the same amount, converted by molar mass.

Tests used:
Format in all cases: cell-based
[1] = system: MCF-7 cell line (breast cancer); test: MTT cell viability assay, MCF-7 cell line (breast cancer); settings: Homo sapiens, MCF7; MCF-7, MTT, 48 hours; read-out: half maximal inhibitory concentration (IC50), MCF-7
Experimental: (§1) Cell proliferation of A549 cell line (lung cancer), CT26 cell line (colon cancer), DU145 cell line (prostate cancer), HepG2 cell line (liver cancer), PC3 cell line (prostate cancer), MDA-MB-231 cell line (breast cancer) and MCF-7 cell line (breast cancer) was assessed by MTT cell viability assay.
(§2) Above cell lines were cultured in determined medium for 24 hours. Proliferative cells were washed with PBS solution, treated with trpsin-EDTA (1×), centrifuged at 1,200 rpm for 5 min, precipitated the cells and discarded supernatant. The cells were resuspended with 10 ml of fresh medium, and then loaded to 96-well plate. While the assay initiated, 0.01˜200 μg/ml of Antrodia camphorata extract was added in each well, and the plate was incubated for 48 hours, at 37° C., 5% CO2. Each wall was added with 2.5 mg/ml MTT reagent in the dark. After 4 hours of reaction, 100 μl lysis buffer were added to each wall to terminate the reaction. […] The experiment data was represented by means±SD. All data was statistically analyzed by paired-t test, and a P-value less than 0.05 was considered significant.

[2] = system: A549 cell line (lung cancer); test: MTT cell viability assay, A549 cell line (lung cancer); settings: Homo sapiens, 48 hours, read-out: half maximal inhibitory concentration (IC50), A549
Experimental: as §1, §2

[3] = system: DU145 cell line (prostate cancer); test: MTT cell viability assay, DU145 cell line (prostate cancer); settings: Homo sapiens; DU-145, MTT, 48 hours; read-out: half maximal inhibitory concentration (IC50), DU-145
Experimental: as §1, §2

[4] = system: CT26 cell line (colon cancer); test: MTT cell viability assay, CT26 cell line (colon cancer); settings: Mus musculus, 48 hours, read-out: half maximal inhibitory concentration (IC50), CT26
Experimental: as §1, §2

[5] = system: HepG2 cell line (liver cancer); test: MTT cell viability assay, HepG2 cell line (liver cancer); settings: Homo sapiens, 48 hours, read-out: half maximal inhibitory concentration (IC50), HepG2
Experimental: as §1, §2

[6] = system: PC3 cell line (prostate cancer); test: MTT cell viability assay, PC3 cell line (prostate cancer); settings: Homo sapiens, PC-3, 48 hours, read-out: half maximal inhibitory concentration (IC50), PC3
Experimental: as §1, §2

[7] = system: MDA-MB-231 cell line (breast cancer); test: MTT cell viability assay, MDA-MB-231 cell line (breast cancer); settings: Homo sapiens; MDA-MB-231, MTT, 48 hours; read-out: half maximal inhibitory concentration (IC50), MDA-MB-231
Experimental: as §1, §2

[8] = Solvent (DMSO) cytotoxicity, cell death; settings: DMSO content of diluted drug; cell line not stated
Experimental: The symbols used in tables respectively represent: 0-25% cell viability: +/−; 25˜50% cell viability: +; 50˜75% cell viability: ++, 75˜100% cell viability: +++, >100% cell viability: ++++. […] In this experiment, when the drug concentration was diluted to […], DMSO concentration was 0.5%.

SMILES	IC50 [1]	IC50 [2]	IC50 [3]	IC50 [4]	IC50 [5]	IC50 [6]	IC50 [7]	IC50 value of the solvent (50% cell death) [8]
COC1=C(OC)[C@H](O)[C@H](C/C=C(\C)CC/C=C(\C)C/C=C/C(C)(C)O)[C@@H](C)C1=O [Antrocamol LT3, (4R,5R,6R)-4-hydroxy-5-[(2E,6E,9E)-11-hydroxy-3,7,11-trimethyldodeca-2,6,9-trienyl]-2,3-dimethoxy-6-methylcyclohex-2-enone]	0.1 ± 0.01 µg/mL (≈ 0.246 µM)	0.014 ± 0.002 µg/mL (≈ 0.0344 µM)	0.07 ± 0.001 µg/mL (≈ 0.172 µM)	0.011 ± 0.001 µg/mL (≈ 0.0271 µM)	0.004 ± 0.001 µg/mL (≈ 0.00984 µM)	0.009 ± 0.001 µg/mL (≈ 0.0221 µM)	1.01 ± 0.06 µg/mL (≈ 2.48 µM)	
C[S+](C)[O-] [DMSO]								2.34%
